Results as given in PubChem BioAssay (NCI).
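Protocol summary: plate cells (96-well), add compound at 5 concentrations, incubate 48 h, interpolate endpoints linearly. Here, GI50 denotes the concentration required for 50% inhibition of growth. TGI marks complete inhibition of growth.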

Experiments:
Assay in all cases: NCI tumour cell line growth inhibition, 48 h
786-0 renal = test system: 786-0 renal
A498 renal = test system: A498 renal
A549 NSCLC = test system: A549 NSCLC
ACHN renal = test system: ACHN renal
BT-549 breast = test system: BT-549 breast
CAKI-1 renal = test system: CAKI-1 renal
CCRF-CEM leukemia = test system: CCRF-CEM leukemia
COLO 205 colon = test system: COLO 205 colon
DU-145 prostate = test system: DU-145 prostate
EKVX NSCLC = test system: EKVX NSCLC
HCC-2998 colon = test system: HCC-2998 colon
HCT-116 colon = test system: HCT-116 colon
HCT-15 colon = test system: HCT-15 colon
HL-60(TB) leukemia = test system: HL-60(TB) leukemia
HOP-62 NSCLC = test system: HOP-62 NSCLC
HOP-92 NSCLC = test system: HOP-92 NSCLC
HS 578T breast = test system: HS 578T breast
HT29 colon = test system: HT29 colon
IGROV1 ovarian = test system: IGROV1 ovarian
K-562 leukemia = test system: K-562 leukemia
KM12 colon = test system: KM12 colon
LOX IMVI melanoma = test system: LOX IMVI melanoma
M14 melanoma = test system: M14 melanoma
MALME-3M melanoma = test system: MALME-3M melanoma
MCF7 breast = test system: MCF7 breast
MDA-MB-231 breast = test system: MDA-MB-231 breast
MDA-MB-435 = test system: MDA-MB-435
MDA-MB-468 breast = test system: MDA-MB-468 breast
MOLT-4 leukemia = test system: MOLT-4 leukemia
NCI-H226 lung = test system: NCI-H226 lung
NCI-H23 lung = test system: NCI-H23 lung
NCI-H460 lung = test system: NCI-H460 lung
NCI-H522 lung = test system: NCI-H522 lung
NCI/ADR-RES ovarian = test system: NCI/ADR-RES ovarian
OVCAR-3 ovarian = test system: OVCAR-3 ovarian
OVCAR-4 ovarian = test system: OVCAR-4 ovarian
OVCAR-5 ovarian = test system: OVCAR-5 ovarian
OVCAR-8 ovarian = test system: OVCAR-8 ovarian
PC-3 prostate = test system: PC-3 prostate
RPMI-8226 leukemia = test system: RPMI-8226 leukemia
RXF 393 renal = test system: RXF 393 renal
SF-268 CNS = test system: SF-268 CNS
SF-295 CNS = test system: SF-295 CNS
SF-539 CNS = test system: SF-539 CNS
SK-MEL-2 melanoma = test system: SK-MEL-2 melanoma
SK-MEL-28 melanoma = test system: SK-MEL-28 melanoma
SK-MEL-5 melanoma = test system: SK-MEL-5 melanoma
SK-OV-3 ovarian = test system: SK-OV-3 ovarian
SN12C renal = test system: SN12C renal
SNB-19 CNS = test system: SNB-19 CNS
SNB-75 CNS = test system: SNB-75 CNS
SR leukemia = test system: SR leukemia
SW-620 colon = test system: SW-620 colon
T-47D breast = test system: T-47D breast
TK-10 renal = test system: TK-10 renal
U251 CNS = test system: U251 CNS
UACC-257 melanoma = test system: UACC-257 melanoma
UACC-62 melanoma = test system: UACC-62 melanoma
UO-31 renal = test system: UO-31 renal

**Q.** What does the source list for `COc1cccc(-c2nn(-c3ccccc3)cc2-c2ccnc(NCCCNC(=O)Nc3ccc(F)cc3)c2)c1`?
**A.** GI50 (786-0 renal): 9.34 µM; TGI (786-0 renal): > 37 µM; GI50 (A498 renal): 7.37 µM; TGI (A498 renal): 31.4 µM; GI50 (A549 NSCLC): 9.95 µM; TGI (A549 NSCLC): > 37 µM; GI50 (ACHN renal): 10.6 µM; TGI (ACHN renal): > 37 µM; GI50 (BT-549 breast): 6.24 µM; TGI (BT-549 breast): 20.3 µM; GI50 (CAKI-1 renal): 8.63 µM; TGI (CAKI-1 renal): > 37 µM; GI50 (CCRF-CEM leukemia): 8.53 µM; TGI (CCRF-CEM leukemia): 31.5 µM; GI50 (COLO 205 colon): 8.17 µM; TGI (COLO 205 colon): 29.3 µM; GI50 (DU-145 prostate): 14 µM; TGI (DU-145 prostate): > 37 µM; GI50 (EKVX NSCLC): 9.63 µM; TGI (EKVX NSCLC): > 37 µM; GI50 (HCC-2998 colon): 7.38 µM; TGI (HCC-2998 colon): 20 µM; GI50 (HCT-116 colon): 5.7 µM; TGI (HCT-116 colon): 17 µM; GI50 (HCT-15 colon): 7.64 µM; TGI (HCT-15 colon): > 37 µM; GI50 (HL-60(TB) leukemia): 3.77 µM; TGI (HL-60(TB) leukemia): 13.7 µM; GI50 (HOP-62 NSCLC): 14.7 µM; TGI (HOP-62 NSCLC): > 37 µM; GI50 (HOP-92 NSCLC): 6.25 µM; TGI (HOP-92 NSCLC): 31.1 µM; GI50 (HS 578T breast): 6.24 µM; TGI (HS 578T breast): 17.9 µM; GI50 (HT29 colon): 7.17 µM; TGI (HT29 colon): 18.2 µM; GI50 (IGROV1 ovarian): 9.34 µM; TGI (IGROV1 ovarian): > 37 µM; GI50 (K-562 leukemia): 2.96 µM; TGI (K-562 leukemia): > 37 µM; GI50 (KM12 colon): 10.5 µM; TGI (KM12 colon): > 37 µM; GI50 (LOX IMVI melanoma): 5.86 µM; TGI (LOX IMVI melanoma): 12 µM; GI50 (M14 melanoma): 6.71 µM; TGI (M14 melanoma): 19 µM; GI50 (MALME-3M melanoma): 5.45 µM; TGI (MALME-3M melanoma): 10.6 µM; GI50 (MCF7 breast): 7.17 µM; TGI (MCF7 breast): 18 µM; GI50 (MDA-MB-231 breast): 7.84 µM; TGI (MDA-MB-231 breast): 23 µM; GI50 (MDA-MB-435): 5.61 µM; TGI (MDA-MB-435): 12.8 µM; GI50 (MDA-MB-468 breast): 4.83 µM; TGI (MDA-MB-468 breast): 13 µM; GI50 (MOLT-4 leukemia): 3.94 µM; TGI (MOLT-4 leukemia): 19 µM; GI50 (NCI-H226 lung): 10.8 µM; TGI (NCI-H226 lung): > 37 µM; GI50 (NCI-H23 lung): 10.1 µM; TGI (NCI-H23 lung): > 37 µM; GI50 (NCI-H460 lung): 6.54 µM; TGI (NCI-H460 lung): 17.1 µM; GI50 (NCI-H522 lung): 5.07 µM; TGI (NCI-H522 lung): 12 µM; GI50 (NCI/ADR-RES ovarian): 7.29 µM; TGI (NCI/ADR-RES ovarian): 25.4 µM; GI50 (OVCAR-3 ovarian): 6.18 µM; TGI (OVCAR-3 ovarian): > 37 µM; GI50 (OVCAR-4 ovarian): 10.5 µM; TGI (OVCAR-4 ovarian): > 37 µM; GI50 (OVCAR-5 ovarian): 11.2 µM; TGI (OVCAR-5 ovarian): > 37 µM; GI50 (OVCAR-8 ovarian): 10.6 µM; TGI (OVCAR-8 ovarian): > 37 µM; GI50 (PC-3 prostate): 6.23 µM; TGI (PC-3 prostate): > 37 µM; GI50 (RPMI-8226 leukemia): 5.96 µM; TGI (RPMI-8226 leukemia): 24.6 µM; GI50 (RXF 393 renal): 6.01 µM; TGI (RXF 393 renal): 28.6 µM; GI50 (SF-268 CNS): 7.08 µM; TGI (SF-268 CNS): 30 µM; GI50 (SF-295 CNS): 7.16 µM; TGI (SF-295 CNS): 21.7 µM; GI50 (SF-539 CNS): 6.34 µM; TGI (SF-539 CNS): 13.4 µM; GI50 (SK-MEL-2 melanoma): 6.3 µM; TGI (SK-MEL-2 melanoma): 12.6 µM; GI50 (SK-MEL-28 melanoma): 6.57 µM; TGI (SK-MEL-28 melanoma): 15.5 µM; GI50 (SK-MEL-5 melanoma): 5.64 µM; TGI (SK-MEL-5 melanoma): 10.8 µM; GI50 (SK-OV-3 ovarian): 10.8 µM; TGI (SK-OV-3 ovarian): > 37 µM; GI50 (SN12C renal): 9.83 µM; TGI (SN12C renal): > 37 µM; GI50 (SNB-19 CNS): 12.1 µM; TGI (SNB-19 CNS): > 37 µM; GI50 (SNB-75 CNS): 4.18 µM; TGI (SNB-75 CNS): 22.7 µM; GI50 (SR leukemia): 7.7 µM; TGI (SR leukemia): > 37 µM; GI50 (SW-620 colon): 8.02 µM; TGI (SW-620 colon): > 37 µM; GI50 (T-47D breast): 7.95 µM; TGI (T-47D breast): > 37 µM; GI50 (TK-10 renal): 21.2 µM; TGI (TK-10 renal): > 37 µM; GI50 (U251 CNS): 9.84 µM; TGI (U251 CNS): > 37 µM; GI50 (UACC-257 melanoma): 7.05 µM; TGI (UACC-257 melanoma): 16.9 µM; GI50 (UACC-62 melanoma): 7.57 µM; TGI (UACC-62 melanoma): 24.2 µM; GI50 (UO-31 renal): 5.1 µM; TGI (UO-31 renal): > 37 µM
